Measured values: a melting point compilation (Tetko et al.; mined from patent text by program, amines drawn as free bases though some values may be those of a salt)

Row | melting point [°C] | Structure (SMILES)
1 | 68 | CCOC(=O)c1c(-c2ccccc2)nc2ccccn12
2 | 225 to 227 | CCc1nc2c(N)nc3c(c2n1CC(C)(C)OCCS(C)(=O)=O)CCCC3
3 | 105 to 108 | COC(=O)c1ccn(C)c1S(=O)(=O)NC(C)(C)C
4 | 69 to 70 | CC(C)C[C@H]1COCC(=O)N1
5 | 182 to 183 | CC(C)(C)OC(=O)N1CCN(c2ccc(-c3ccnc(Cl)n3)cn2)CC1
6 | 155 to 157 | CCOC(=O)c1c(O)c2ccc(C)nc2n(Cc2ccccc2)c1=O
7 | 122 to 124 | COc1ccc2cccc(C(=O)CNC(C)=O)c2c1
8 | 47 to 50 | COc1cc([N+](=O)[O-])c2nccc(C)c2c1OCCCCCc1ccccc1
9 | 126 to 127 | O=C1CC(Sc2ccccc2)C(O)(c2ccccc2)C(Sc2ccccc2)C1 (configuration not stated)
10 | 193 to 195 | Cc1cc2c3c(ccc2cc1C=O)OC(=O)C3(C)C
11 | 264 to 265 | COc1ccc2c(c1)-c1nn(CCCl)c3ccc([N+](=O)[O-])c(c13)N2
12 | 227 to 228 | Cc1cc(C(=O)O)n(-c2ncc(Cl)cc2Cl)n1
13 | 140 to 141 | CC1(C)CC(NC(=O)NCc2ccccc2)c2cc(C#N)ccc2O1 (configuration not stated)
14 | 147 to 149 | CCc1nc2nccc(-c3cccnc3)n2n1
15 | 90 to 91 | CCCOc1cc(CO)n(Cc2ccc3ccccc3n2)n1
16 | 122 | Cc1cc2nc(C(C)(C)C(=O)O)cn2nc1OCCCN1CCC(OC(c2ccccc2)c2ccccc2)CC1
17 | 149 to 152 | Cc1ccc2c(c1)nnn2CNc1ccccc1
18 | 150 to 151 | COc1cc(CCl)ccc1OCc1nc(-c2cccc(C#N)c2)oc1C
19 | 119 to 120 | COc1ccc(CCC(=O)Nc2c(C)c(C)c3c(c2C)C(c2ccc(C(C)C)cc2)CO3)cc1 (configuration not stated)
20 | 161 to 163 | COc1ccc(C2=Cc3ccc(O)cc3OC2)cc1
21 | 153 to 154 | CC(=O)N1CCN(c2ccc(NS(C)(=O)=O)c(C)c2)CC1
22 | 226 to 228 | CCOC(=O)C1=C(c2ccc(-n3c(C)nc4cnccc43)cc2)NC(C)=C(C(=O)Nc2ccccn2)C1c1ccccc1Cl (configuration not stated)
23 | 204 to 205 | CC(C)(C)OC(=O)N1CCN(c2[nH]nc(-c3ccc(Cl)cc3)c2-c2ccncc2)CC1
24 | 89 | Brc1ccc(-c2ccc(Br)cc2I)c(I)c1

Row | melting point [°C] | Structure (SMILES)
25 | 224 to 226 | CCNC(=O)[C@H]1CN(c2ccc3c(c2)sc(=O)n3C)C(=O)O1
26 | 232 to 234 | COc1ccc2nc3c(c(Cl)c2c1)C(=O)c1ccccc1-3
27 | 198 to 200 | CS(=O)(=O)c1ccc(-c2nn3c(c2-c2ccc(F)cc2)OCCC3)cc1
28 | 135 to 140 | COc1ncc(Cl)cc1C(O)C=Cc1ccc(Cl)cc1 (configuration not stated)
29 | 89 | CC(C(=O)N(c1ccccc1)c1ccccc1)N1C(=O)c2ccccc2C1=O (racemic)
30 | 177 to 178 | CC(C)(C)c1ccc(-c2ccc(F)cc2)n1CC[C@H]1C[C@H](O)CC(=O)O1 (relative stereo)
31 | 185 to 188 | Nc1cccc(-c2ccc(C3CCNC3=O)cc2F)n1 (configuration not stated)
32 | 148 to 150 | CN(C(=O)Cc1csc(N)n1)c1ccc(Cl)cc1
33 | 123 to 124 | COC(=O)C(N)Cc1ccc(Oc2ccc(O)cc2)cc1 (configuration not stated)
34 | 173 to 176 | CSc1ccc2nc(NN)sc2c1
35 | 126 to 128 | C=C(C)[C@@H]1CC[C@](C)(O)[C@@H](n2ccnc2)C1
36 | 169 to 170 | C[C@@H]1N[C@@H](c2ccc(C#N)cc2)[C@H]2C(=O)N(Cc3ccccc3)C(=O)[C@H]21 (racemic)
37 | 151 | Cn1nc(-c2cc(O)c(C#N)cc2F)c(Cl)c1C(F)(F)F
38 | 140 to 145 | CN(Cc1cn[nH]c1)C1CCN(C(=O)c2ccc(Nc3nccc(Nc4ccc(F)cc4)n3)cc2)CC1
39 | 92 to 96 | CCCCCCC(=O)N[C@H](CCC(=O)O)C(=O)O
40 | 117 to 119 | CC1(Cc2cc3[nH]c(=O)oc3cc2Br)OCCO1
41 | 80 to 82 | CN1CC(Cc2ccccc2)OC1=O (configuration not stated)
42 | 80.5 to 86.5 | NC(Cc1ccc(OCc2ccccc2)cc1)C(=O)Nc1c(F)cc(F)cc1F (configuration not stated)
43 | 206 to 208 | CCOC(=O)c1cn2c(n1)CNc1ccccc1-2
44 | 141 to 143 | O=C1C(=O)N(Cc2ccc(Br)cc2F)c2c1cccc2C(F)(F)F
45 | 254 to 256 | O=C(c1ccc(Br)cc1)c1cc(Br)c(C(=O)c2ccc(Br)cc2)cc1Br
46 | 296 to 299 | CS(=O)(=O)c1ccc(C2CC(=O)C(C(=O)c3ccc(Cl)cc3[N+](=O)[O-])C(=O)N2)cc1 (configuration not stated)
47 | 219 to 221 | O=C(O)c1cc2ccc3c(c2c(-c2ccc4c(c2)OCO4)c1COCc1ccccc1)OCO3
48 | 112 to 113 | OC(c1cc(-c2ccc(F)cc2)c(-c2ccc(F)cc2)[nH]1)(C(F)(F)F)C(F)(F)F

Row | melting point [°C] | Structure (SMILES)
49 | 110 to 111 | NC(C(=O)c1ccccc1)[N+](=O)[O-] (configuration not stated)
50 | 73 to 75 | CC(C)CC(CNOCc1ccccc1)C(=O)O (racemic)
51 | 235 to 240 | CC(Oc1ccc(OC(C)C(=O)O)cc1)C(=O)O (configuration not stated)
52 | 215 to 219 | N#Cc1cnn(-c2ccc(Cl)c(Cl)c2Cl)c1C=CC(=O)O
53 | 87 to 89 | CCOC(=O)CNC(=O)CCN(C(=O)c1ccc(Cl)cc1)c1ccc(OC)cc1
54 | 150 to 175 | NC(=O)N1C(=O)C(=C(OC(=O)COCc2ccccc2)c2cccs2)c2cc(F)c(Cl)cc21
55 | > 300 | NC(=O)[C@@H]1[C@H](Nc2c(Br)cnc3[nH]c(-c4cncnc4)nc23)[C@H]2C=C[C@@H]1C2
56 | 166 to 168 | Cc1cc(CNC(=O)CCl)c(O)c2c1CCC2=O
57 | 244 to 245 | Cc1cc2ncccc2c(=O)[nH]1
58 | 218 | CN(C)C1=C(C#N)C(c2ccc(Cl)c([N+](=O)[O-])c2)c2ccc3ccccc3c2O1 (configuration not stated)
59 | 134 to 136 | CCOC(=O)OC1=C(c2c(C)cc(C)cc2C)C(=O)N(C)C12CCN(OC)CC2
60 | 171 to 172 | Cc1nc(NC(=O)c2ccncc2)sc1C(=O)NCc1ccccc1
61 | 236 to 237 | Cc1cc2c(cc1Sc1ccc(C(=O)Nc3ccc(O)cc3)cc1)C(C)(C)CCC2(C)C
62 | 73 to 75 | CCC1Cc2c(C)c(O)c(C)c(C)c2O1 (racemic)
63 | 125 to 127 | CC(C)Cc1ccc2ccc(N)nc2n1
64 | 204 | CCc1nc2cc(C(F)(F)F)c(Cl)cc2n1-c1ccc(CCOC(=O)NS(=O)(=O)c2cn(C)cn2)cc1
65 | 170 to 172 | COc1ccc2cc(Oc3cnc(N)nc3N)c(C(C)C)cc2c1
66 | 169 | CCOC(=O)c1c(-c2cccc(Cl)c2)csc1N1C(=O)c2ccccc2C1=O
67 | 38 to 41 | COc1cc(C(O)(C(F)(F)F)C(F)(F)F)cc(Br)c1NS(C)(=O)=O
68 | 102 | CCCc1c(O)ccc2c1OC(C)(CCC(=O)OC)CC2=O (configuration not stated)
69 | 110 to 112 | COc1ccccc1N1CCN(CCN(C(=O)C2CCCCC2)c2ccccc2OCC(F)(F)F)CC1
70 | 136 to 138 | C[C@H](NC(=O)c1ccc([N+](=O)[O-])cc1F)C(=O)O

Row | Structure (SMILES) | melting point [°C]
71 | Clc1ccc(N2CCN(Cc3ccc4[nH]ccc4c3)CC2)cc1 | 175 to 176
72 | O=C(CBr)c1ccc(O)cc1 | 115 to 118
